The values that follow come from patent publication US20130253019A1, “LYSOPHOSPHATIDIC ACID RECEPTOR ANTAGONISTS FOR THE TREATMENT OF CONDITIONS OR DISEASES OF THE EYE” (priority 2010, published 2013).

For one assay, the target named is T1, Human LPA1 (Homo sapiens, UniProt Q92633).
T1 construct: the full-length cDNA for human LPA1 was obtained by PCR of the reverse transcription reaction; expressed in transfected cells
In words: LPA1 calcium flux assay. Type of assay: cell-based. Conditions: CHO cells expressing human LPA1, 10 nM LPA; read-out: Ca Flux IC50 LPA1. Here is the method:
A 1.1 kb cDNA encoding the human LPA1 receptor was cloned from human lung. Human lung RNA (Clontech Laboratories, Inc. USA) was reverse transcribed using the RETROscript kit (Ambion, Inc.) and the full-length cDNA for human LPA1 was obtained by PCR of the reverse transcription reaction. The nucleotide sequence of the cloned human LPA1 was determined by sequencing and confirmed to be identical to the published human LPA1 sequence (An et al. Biochem. Biophys. Res. Commun. 231:619 (1997). The cDNA was cloned into the pcDNA5/FRT expression plasmid and transfected in CHO cells using lipofectamine 2000 (Invitrogen Corp., USA). Clones stably expressing human LPA1 were selected using hygromycin and identified as cells that show Ca-influx in response to LPA.
(§1) Human LPA1 or LPA3 expressing CHO cells are seeded at 20,000-45,000 cells per well in a 96-well poly-D-lysine coated plate one or two days before the assay. Prior to the assay, the cells are washed once with PBS and then cultured in serum-free media for at least 6 hrs and up to 24 hrs. On the day of the assay, a calcium indicator dye (Calcium 5, Molecular Devices) in assay buffer (HBSS with Ca^2+ and Mg^2+ and containing 20 mM Hepes and 0.3% fatty-acid free human serum albumin) is added to each well and incubation continued for 1 hour at room temperature. 10 μl of test compounds in 2.5% DMSO are added to the cells and incubation continued at room temperature for 30 minutes. Cells are the stimulated by the addition of 10 nM LPA and intracellular Ca^2+ measured using the Flexstation 3 (Molecular Devices). IC50s are determined using Symyx Assay Explorer analysis of drug titration curves.
In general terms: Calcium flux is commonly read through the fluorescence of an indicator in the cells.

For a further assay, the target named is T2, human LPA2 (Homo sapiens, UniProt Q9HBW0).
T2 construct: expressed in transfected cells; host or cells: B103 cells (transient), or alternatively BT-20 human breast cancer cells (endogenous)
The assay can be described thus: LPA2 calcium flux assay. Type of assay: cell-based. As to conditions: BT-20 cells or B103 cells transiently expressing human LPA2; read-out: Ca Flux IC50 LPA2. The method, then:
An expression vector encoding the human LPA2 cDNA was transiently transfected into B103 cells using Lipofectamine™ 2000 (Invitrogen) following the manufacturers instruction. On the day before the assay, 30,000-35,000 cells/well were seeded together with 0.2 μl lipofectamine 2000 and 0.2 μg human LPA2 expression vector in 96-well Poly-D-Lysine coated black-wall clear-bottom plates (BD BioCoat) in DMEM+10% FBS. Following an overnight culture, cells were washed once with PBS then cultured in serum-free media for 4 hours prior to start of the calcium flux assay.
LPA2 calcium flux is measured using at least one of two different assays. In one assay, BT-20 human breast cancer cells are seeded at 25,000-35,000 cells per well in 150 μl complete media on Poly-D-Lysine coated black-wall clear-bottom plates. Following an overnight culture, cells are washed once with PBS then serum starved for 4-6 hours prior to the assay. On the day of the assay, a calcium indicator dye (Calcium 5, Molecular Devices) in assay buffer (HBSS with Ca^2+ and Mg^2+ and containing 20 mM Hepes and 0.3% fatty-acid free human serum albumin) is added to each well and incubation continued for 15 minutes at 37° C. 25 μl of test compounds in 2.5% DMSO are added to the cells and incubation continued at 37° C. for 15-30 minutes. Cells are the stimulated by the addition of 100 nM LPA and intracellular Ca^2+ measured using the Flexstation 3 (Molecular Devices). IC50s are determined using Symyx Assay Explorer analysis of drug titration curves In the second assay, B103 cells transiently expressing huma LPA2 are serum starved for 4 hours. A calcium indicator dye (Calcium 4, Molecular Devices) in assay buffer (HBSS with Ca^2+ and Mg^2+ and containing 20 mM Hepes and 0.3% fatty-acid free human serum albumin) is then added to each well and incubation continued for 1 hour at 37° C. 10 μl of test compounds in 2.5% DMSO are added to the cells and incubation continued at room temperature for 30 minutes. Cells are the stimulated by the addition of 10 nM LPA and intracellular Ca^2+ measured using the Flexstation 3 (Molecular Devices). IC50s are determined using Symyx Assay Explorer analysis of drug titration curves.

Another assay addresses T3, Human LPA3 (Homo sapiens, UniProt Q9UBY5).
T3 construct: The full-length cDNA fragment for human LPA3 was obtained by PCR from the vector; expressed in transfected cells; cDNA from the Missouri S&T cDNA Resource Center
T3 sequence (Q9UBY5 1-353): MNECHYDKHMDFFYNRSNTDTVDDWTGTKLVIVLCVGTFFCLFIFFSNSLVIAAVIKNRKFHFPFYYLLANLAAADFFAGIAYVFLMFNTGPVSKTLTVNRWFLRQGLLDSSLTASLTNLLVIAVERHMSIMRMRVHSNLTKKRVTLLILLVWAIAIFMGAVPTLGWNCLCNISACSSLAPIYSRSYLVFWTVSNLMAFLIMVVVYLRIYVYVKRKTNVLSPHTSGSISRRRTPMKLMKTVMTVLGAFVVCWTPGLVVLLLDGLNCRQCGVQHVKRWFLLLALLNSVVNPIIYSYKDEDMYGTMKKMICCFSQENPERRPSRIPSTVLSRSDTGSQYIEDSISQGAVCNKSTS
In words: LPA3 calcium flux assay. The format is cell-based. Conditions: CHO cells expressing human LPA3, 10 nM LPA; read-out: Ca Flux IC50 LPA3. Here is the method: A vector containing the human LPA3 receptor cDNA was obtained from the Missouri S&T cDNA Resource Center (www.cdna.org). The full-length cDNA fragment for human LPA3 was obtained by PCR from the vector. The nucleotide sequence of the cloned human LPA3 was determined by sequencing and confirmed to be identical to the published human LPA3 sequence (NCBI accession number NM_012152). The cDNA was cloned into the pcDNA5/FRT expression plasmid and transfected in CHO cells using lipofectamine 2000 (Invitrogen Corp., USA). Clones stably expressing human LPA3 were selected using hygromycin and identified as cells that show Ca-influx in response to LPA.
as §1

The target of a further assay is LPA4 (Homo sapiens, UniProt Q99677). The assay can be described thus: LPA4 Ca flux assay. Type of assay: cell-based.
A further assay deals with LPA5 (Homo sapiens, UniProt Q9H1C0). In words: LPA5 Ca flux assay. Type of assay: cell-based.
The test system of another assay is CNV lesion. As to conditions: po, 30 mg/kg, 336 h.

pIC50: −log10 of the molar value.

LPA4, sequence (Q99677 whole entry, species assumed): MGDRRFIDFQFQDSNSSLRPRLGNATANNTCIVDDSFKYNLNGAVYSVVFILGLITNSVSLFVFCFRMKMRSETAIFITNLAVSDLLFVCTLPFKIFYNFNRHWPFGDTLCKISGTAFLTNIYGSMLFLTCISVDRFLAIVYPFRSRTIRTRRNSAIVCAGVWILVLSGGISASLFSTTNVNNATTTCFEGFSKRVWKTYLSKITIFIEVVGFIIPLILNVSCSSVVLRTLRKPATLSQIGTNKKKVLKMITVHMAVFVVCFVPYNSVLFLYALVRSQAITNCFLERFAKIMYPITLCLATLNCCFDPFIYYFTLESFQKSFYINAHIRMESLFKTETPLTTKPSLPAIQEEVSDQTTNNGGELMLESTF
T1 sequence (Q92633 whole entry): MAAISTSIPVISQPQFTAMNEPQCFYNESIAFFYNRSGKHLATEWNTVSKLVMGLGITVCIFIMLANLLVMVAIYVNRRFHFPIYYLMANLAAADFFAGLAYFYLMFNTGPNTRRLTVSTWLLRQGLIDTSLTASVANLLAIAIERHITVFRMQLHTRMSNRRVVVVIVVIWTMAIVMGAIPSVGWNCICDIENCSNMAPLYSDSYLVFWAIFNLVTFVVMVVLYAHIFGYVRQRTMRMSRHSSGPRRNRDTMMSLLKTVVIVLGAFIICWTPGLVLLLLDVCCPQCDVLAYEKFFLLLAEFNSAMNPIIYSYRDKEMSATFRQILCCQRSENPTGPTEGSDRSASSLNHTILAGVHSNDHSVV
T2 sequence (Q9HBW0 whole entry): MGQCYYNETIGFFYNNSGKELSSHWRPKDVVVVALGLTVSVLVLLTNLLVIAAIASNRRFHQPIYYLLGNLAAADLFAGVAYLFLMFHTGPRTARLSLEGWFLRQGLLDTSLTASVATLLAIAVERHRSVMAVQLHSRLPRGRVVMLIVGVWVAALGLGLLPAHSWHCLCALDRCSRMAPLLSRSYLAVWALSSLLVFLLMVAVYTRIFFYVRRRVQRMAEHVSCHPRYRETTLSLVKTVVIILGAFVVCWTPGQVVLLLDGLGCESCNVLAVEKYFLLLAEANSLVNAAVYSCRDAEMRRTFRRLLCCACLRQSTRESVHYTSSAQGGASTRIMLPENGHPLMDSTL
LPA5, sequence (Q9H1C0 whole entry, species assumed): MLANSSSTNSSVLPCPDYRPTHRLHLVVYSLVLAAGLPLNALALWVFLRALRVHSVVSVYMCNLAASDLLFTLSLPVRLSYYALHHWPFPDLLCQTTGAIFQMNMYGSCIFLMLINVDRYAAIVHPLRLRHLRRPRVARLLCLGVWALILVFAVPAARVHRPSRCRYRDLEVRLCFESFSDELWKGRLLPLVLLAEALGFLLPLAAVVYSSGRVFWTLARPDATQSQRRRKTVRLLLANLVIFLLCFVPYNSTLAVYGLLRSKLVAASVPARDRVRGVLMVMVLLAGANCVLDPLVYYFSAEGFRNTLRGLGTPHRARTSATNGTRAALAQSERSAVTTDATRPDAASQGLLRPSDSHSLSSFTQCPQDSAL

What is called pIC50 is −log10 of the IC50, conventionally taken in molar units. Regarding `Cc1noc(-c2ccc(-c3ccc(CC(=O)O)cc3)cc2)c1NC(=O)O[C@H](C)c1ccccc1` [Compound A, (R)-2-(4′-(3-methyl-4-((1-phenylethoxy)carbonylamino)isoxazol-5-yl)biphenyl-4-yl)acetic acid], the pIC50 at Human LPA1 is more than 6.70; at human LPA2 it was less than 6.00; at Human LPA3 it was less than 6.00; on LPA4 it was less than 6.00; against LPA5, less than 6.00.

As to `Cc1noc(-c2ccc(-c3ccc(C4(C(=O)O)CC4)cc3)cc2)c1NC(=O)O[C@H](C)c1ccccc1` [Compound B, (R)-1-(4′-(3-methyl-4-((1-phenylethoxy)carbonylamino)isoxazol-5-yl)biphenyl-4-yl)cyclopropanecarboxylic acid], the pIC50 was more than 6.70 at Human LPA1; less than 6.00 at human LPA2; less than 6.00 on Human LPA3; less than 6.00 at LPA4; less than 6.00 against LPA5. For the same compound, in the assay with CNV lesion, the “decrease of CNV lesion volume” value turned out to be 11%.

For the compound `Cc1noc(-c2ccc(-c3ccc(CC(=O)O)cc3)cc2)c1NC(=O)O[C@H](C)c1ccccc1Cl` [Compound C, (R)-2-(4′-(4-((1-(2-chlorophenyl)ethoxy)carbonylamino)-3-methylisoxazol-5-yl)biphenyl-4-yl)acetic acid], the pIC50 at Human LPA1 is more than 6.70; on human LPA2 it was less than 6.00; at Human LPA3, less than 6.00; against LPA4, less than 6.00; against LPA5, less than 6.00.

In the case of `Cc1noc(-c2ccc(-c3ccc(C4(C(=O)NS(C)(=O)=O)CC4)cc3)cc2)c1NC(=O)O[C@H](C)c1ccccc1` [Compound D, {5-[4′-(1-Methanesulfonylaminocarbonyl-cyclopropyl)-biphenyl-4-yl]-3-methyl-isoxazol-4-yl}-carbamic acid (R)-1-phenyl-ethyl ester], the pIC50 on Human LPA1 is more than 6.70; on human LPA2, 6.00 to 6.70; on Human LPA3 it was less than 6.00; against LPA4 it was less than 6.00; against LPA5 it was less than 6.00.

Regarding `Cc1noc(-c2ccc(-c3ccc(C4(C(=O)O)CC4)cc3)cc2)c1NC(=O)O[C@H](C)c1ccccc1Cl` [Compound E, 1-(4′-{4-[(R)-1-(2-Chloro-phenyl)-ethoxycarbonylamino]-3-methyl-isoxazol-5-yl}-biphenyl-4-yl)-cyclopropanecarboxylic acid], the pIC50 at Human LPA1 is more than 6.70; at human LPA2, less than 6.00; at Human LPA3, 6.00 to 6.70; against LPA5 it was less than 6.00.

With `C[C@@H](OC(=O)Nc1cnoc1-c1ccc(-c2ccc(C3(C(=O)O)CC3)cc2)cc1)c1ccccc1` [Compound F, 1-{4′-[4-((R)-1-Phenyl-ethoxycarbonylamino)-isoxazol-5-yl]-biphenyl-4-yl}-cyclopropanecarboxylic acid], the results for the pIC50 at Human LPA1, on Human LPA3 and against LPA4 were more than 6.70, less than 6.00 and less than 6.00, respectively.

Turning to `Cc1noc(-c2ccc(-c3ccc(C4(c5nc(=O)o[nH]5)CC4)cc3)cc2)c1NC(=O)O[C@H](C)c1ccccc1` [Compound G, (3-Methyl-5-{4′-[1-(5-oxo-2,5-dihydro-[1,2,4]oxadiazol-3-yl)-cyclopropyl]-biphenyl-4-yl}-isoxazol-4-yl)-carbamic acid (R)-1-phenyl-ethyl ester], the pIC50 on Human LPA1 was more than 6.70; at human LPA2, less than 6.00; at Human LPA3, less than 6.00; at LPA4, less than 6.00; at LPA5 it was less than 6.00.

For `Cc1noc(-c2ccc(-c3ccc(C4(c5nnn[nH]5)CC4)cc3)cc2)c1NC(=O)O[C@H](C)c1ccccc1` [Compound H, (3-Methyl-5-{4′-[1-(1H-tetrazol-5-yl)-cyclopropyl]-biphenyl-4-yl}-isoxazol-4-yl)-carbamic acid (R)-1-phenyl-ethyl ester], the pIC50 was more than 6.70 on Human LPA1; less than 6.00 on human LPA2; less than 6.00 at Human LPA3; less than 6.00 against LPA4; less than 6.00 at LPA5.
